As usually defined, the IC50 is the midpoint of a concentration-inhibition curve. What is called Kd is the free concentration of one partner at which half of the binding sites on the other are occupied at equilibrium, for simple one-to-one binding. Low values mean higher affinity, high ones lower affinity.

The source of these data is patent publication US20250129041A1, “MOLECULAR GLUE AND USES THEREOF” (ASTROGEN, INC., priority 2023, published 2025).

The test system of one data set is Hep3B. Put plainly: HCC cell survival by cell nuclear staining, 24 hours, Hep3B. In kind it is cell-based. As to conditions: Homo sapiens. The protocol: (§1) An indication expansion experiment was performed to evaluate the potential of AST-DT-218 for treating hepatocellular carcinoma (HCC). First, HCC cell lines (Huh7, Hep3B, SNU449, and SNU475) were prepared, and AST-DT-218 and Sorafenib were at the highest concentration of 50 μM, serially diluted by half starting therefrom, thereby preparing 10 concentrations (50 μM, 25 μM, 12.5 μM, etc.). HCC cell lines (Huh7, Hep3B, SNU449, SNU475) were seeded into 96-well plates, in which each well was treated with AST-DT-218 and Sorafenib solutions, and the cells were cultured in an incubator for 24 hours. Then, the cell survival at each concentration was evaluated by measuring the cell count using cell nuclear staining, and a concentration-response curve of cell survival was created based on the data, and the IC50 value was derived.

A further data set concerns Huh7. The experiment in a line: HCC cell survival by cell nuclear staining, 24 hours, Huh7. The class given is cell-based. The conditions noted are these: Homo sapiens, Huh-7. On the procedure: as §1
Another data set has as its system SNU449. The experiment in a line: HCC cell survival by cell nuclear staining, 24 hours, SNU449. The conditions noted are these: Homo sapiens, SNU-449. The class given is cell-based. On the procedure:
as §1

A further data set deals with CRBN proteins (Homo sapiens (Human), UniProt Q96SW2). Put plainly: CRBN affinity test. In kind it is binding. The conditions noted are these: purified CRBN proteins expressed in E. coli. On the procedure: First, CRBN proteins were expressed in E. coli and purified, and then the purified CRBN proteins were dissolved in a buffer solution (PBS). […] After the mixture was sufficiently mixed and reacted, the binding strength at each concentration was measured to collect data, and a binding curve was created therefrom (see FIG. 13), and the KD (equilibrium dissociation constant) values were derived therefrom (see Table 9 and FIG. 14).

For a further data set, the system named is TA98 and TA100 strains. As to conditions: positive controls. On the procedure: First, TA98 and TA 100 strains, which detect frameshift mutations and point mutations, respectively, were cultured. Then, AST-DT-218 was dissolved in a solvent and diluted to various concentrations (20.5 μg/mL, 61.7 μg/mL 185.1 μg/mL, […], 1666.6 μg/mL, and 5000 μg/mL) to prepare an […] (a metabolic activation system; concentration: 30%) including liver enzyme extracts and supplements. Into a histidine-deficient medium at different concentrations of AST-DT-218, (i) the TA98 strain was inoculated without the […] (TA98−S9), (ii) the TA98 strain was inoculated by mixing it with the […] (TA98+S9), (iii) the TA100 strain was inoculated without the […] (TA100−S9), and (iv) the TA100 strain was inoculated by mixing it with the S9 mixture (TA100+S9). As a solvent control, which is a negative control, only the solvent was inoculated into a histidine-deficient medium, and only a pure solvent was used in the absence of any compound. […] After culturing for 48 to 72 hours in each medium, the number of colonies generated was counted to calculate the mutation rate, and the mutagenic effect was compared depending on the presence or absence of the S9 mixture to analyze the effect on metabolic activation.

Sequence of CRBN proteins (Q96SW2 whole entry): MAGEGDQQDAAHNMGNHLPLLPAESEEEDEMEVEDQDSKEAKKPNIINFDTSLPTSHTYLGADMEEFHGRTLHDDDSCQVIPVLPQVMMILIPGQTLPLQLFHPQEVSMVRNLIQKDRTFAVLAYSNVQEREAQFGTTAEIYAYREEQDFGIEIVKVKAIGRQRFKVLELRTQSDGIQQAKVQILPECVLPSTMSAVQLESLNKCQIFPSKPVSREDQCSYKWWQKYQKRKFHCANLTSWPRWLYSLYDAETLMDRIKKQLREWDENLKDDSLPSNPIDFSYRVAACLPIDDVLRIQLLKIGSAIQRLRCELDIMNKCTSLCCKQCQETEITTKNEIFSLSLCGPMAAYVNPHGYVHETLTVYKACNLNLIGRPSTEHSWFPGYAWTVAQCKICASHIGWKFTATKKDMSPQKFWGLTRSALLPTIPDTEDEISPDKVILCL

Regarding `CNC(=O)c1cc(Oc2ccc(NC(=O)Nc3ccc(Cl)c(C(F)(F)F)c3)cc2)ccn1` [Sorafenib, reference compound], the IC50 in the data set on Hep3B came out at 5.67 µM; in the data set on Huh7, 4.37 µM; in the data set on SNU449 it was 11.3 µM.

Take `C[C@H](CO)Nc1cccc2c1C(=O)N(C1CCC(=O)NC1=O)C2=O` (stereo partly drawn) [AST-DT-220, 2-(2,6-dioxopiperidin-3-yl)-4-(((R)-1-hydroxypropan-2-yl)amino)isoindoline-1,3-dione]: the Kd at CRBN proteins is 52 nM.

`O=[N+]([O-])c1ccc2c(c1)Cc1ccccc1-2` [Example 2-NF, 2-nitrofluorene]: the “number of mutant colonies” value in the data set on TA98 and TA100 strains is “significant increase”.

`Nc1ccc2cc3ccccc3cc2c1` [Example 2-AA, 2-aminoanthracene]: the “number of mutant colonies” value in the data set with TA98 and TA100 strains is “significant increase”.

`CCCC(C)Nc1cccc2c1C(=O)N(C1CCC(=O)NC1=O)C2=O` (stereo in doubt) [AST-DT-135, 2-(2,6-dioxopiperidin-3-yl)-4-(((S)-pentan-2-yl)amino)isoindoline-1,3-dione]: at CRBN proteins, the Kd was 29 nM.
